Tested on: MCF7 cells
Assay: Transfection of MCF7 cell line, mRNA vectors
Type: cell-based
Conditions: 50 ng EGFP mRNA per well
Experimental: (§1) Cell line: MCF7 cells (ATCC HTB-22)
Medium: DMEM supplemented with 10 fetal bovine serum (Invitrogen)
(§2) Screening: cell transfection on 96-well plates
Detection (readout): percentage of the number of GFP fluorescent cells relative to the total number of cells (the total number of cells was determined using nucleus dye Hoechst). Lipofectamine2000 (Invitrogen) was used as the positive control.
Method: the experimental method was basically the same with Example 4, and the mass of EGFP mRNA (TriLink) for transfection was 50 ng per well.

First: CCCCCCCCCCCCCCCCSc1nc(NCCCN(C)C)nc(SCCCCCCCCC)n1 [Compound S9S16D6]
Second: CCCCCCCCCCCCCCCCSc1nc(NCCCN2CCN(C)CC2)nc(SCCCCCCCCC)n1 [Compound S9S16D9]
The “Absolute mRNA transfection efficiency in MCF7 cells” value of the first is higher: 34.2% for the first, 33.8% for the second.

Going from `CCCCCCCCCCCCCCCCSc1nc(NCCCN2CCOCC2)nc(SCCCCCCCCC)n1` [Compound S9S16D8] to `CCCCCCCCCCCCCCCCSc1nc(NCC2CCN(C)CC2)nc(SCCCCCCCCC)n1` [Compound S9S16D10], the “Absolute mRNA transfection efficiency in MCF7 cells” value rises from 7.7% to 46.0%.

Going from `CCCCCCCCCCCSc1nc(NCCCCCCC)nc(NCCN2CCCC2)n1` [Compound S11N7D3] to `CCCCCCCCCCCSc1nc(NCCCCCCC)nc(NCCN2CCN(C)CC2)n1` [Compound S11N7D5], the “Absolute mRNA transfection efficiency in MCF7 cells” value falls from 5.8% to 3.4%.

Going from `CCCCCCCCCCCSc1nc(NCCCCCCC)nc(NCCCN(C)C)n1` [Compound S11N7D6] to `CCCCCCCCCCCSc1nc(NCCCCCCC)nc(NCCCN2CCN(C)CC2)n1` [Compound S11N7D9], the “Absolute mRNA transfection efficiency in MCF7 cells” value rises from 4.2% to 5.1%.

Compared with `CCCCCCCCCCCSc1nc(NCCCCCCC)nc(NCCCN2CCOCC2)n1` [Compound S11N7D8], `CCCCCCCCCCCSc1nc(NCCCCCCC)nc(NCC2CCN(C)CC2)n1` [Compound S11N7D10] is higher in “Absolute mRNA transfection efficiency in MCF7 cells” value: 3.2% for the first, 9.0% for the second.

Tested on: Hela cells
Assay: Transfection of Hela cell line, mRNA vectors
Type: cell-based
Conditions: 50 ng EGFP mRNA per well
Procedure, shortened: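 HeLa cells in DMEM with 10% FBS transfected with 50 ng EGFP mRNA per well. Readout is percentage of GFP-positive cells among total cells counted by Hoechst nuclear stain; Lipofectamine2000 served as positive control.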

First: CCCCCCCCCCCCCCCCSc1nc(NCCCN(C)C)nc(SCCCCCCCCC)n1 [Compound S9S16D6]
Second: CCCCCCCCCCCCCCCCSc1nc(NCCCN2CCN(C)CC2)nc(SCCCCCCCCC)n1 [Compound S9S16D9]
The “Absolute mRNA transfection efficiency in Hela cells” value of the first is higher: 27.8% for the first, 6.9% for the second.

Compared with `CCCCCCCCCCCCCCCCSc1nc(NCCCN2CCOCC2)nc(SCCCCCCCCC)n1` [Compound S9S16D8], `CCCCCCCCCCCCCCCCSc1nc(NCC2CCN(C)CC2)nc(SCCCCCCCCC)n1` [Compound S9S16D10] is higher in “Absolute mRNA transfection efficiency in Hela cells” value: 11.6% for the first, 28.6% for the second.

Going from `CCCCCCCCCCCSc1nc(NCCCCCCC)nc(NCCN2CCCC2)n1` [Compound S11N7D3] to `CCCCCCCCCCCSc1nc(NCCCCCCC)nc(NCCN2CCN(C)CC2)n1` [Compound S11N7D5], the “Absolute mRNA transfection efficiency in Hela cells” value rises from 9.8% to 11.4%.

Going from `CCCCCCCCCCCSc1nc(NCCCCCCC)nc(NCCCN(C)C)n1` [Compound S11N7D6] to `CCCCCCCCCCCSc1nc(NCCCCCCC)nc(NCCCN2CCN(C)CC2)n1` [Compound S11N7D9], the “Absolute mRNA transfection efficiency in Hela cells” value falls from 17.0% to 8.3%.

Compared with `CCCCCCCCCCCSc1nc(NCCCCCCC)nc(NCCCN2CCOCC2)n1` [Compound S11N7D8], `CCCCCCCCCCCSc1nc(NCCCCCCC)nc(NCC2CCN(C)CC2)n1` [Compound S11N7D10] is higher in “Absolute mRNA transfection efficiency in Hela cells” value: 6.7% for the first, 14.7% for the second.

Tested on: HEK293 cells
Assay: Preliminary screening as mRNA vectors, EGFP mRNA transfection of HEK293 cells
Type: cell-based
Conditions: HEK293 cells, 96-well plates, EGFP mRNA 50 ng per well; percentage of GFP fluorescent cells relative to total number of cells (Hoechst)
Procedure, shortened: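 Each well of HEK293 cells received 50 ng of EGFP mRNA. Efficiency was expressed as percent GFP-expressing cells over Hoechst-defined total cell number.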

Going from `CCCCCCCCCCCCCCCCSc1nc(NCCCN(C)C)nc(SCCCCCCCCC)n1` [Compound S9S16D6] to `CCCCCCCCCCCCCCCCSc1nc(NCCCN2CCN(C)CC2)nc(SCCCCCCCCC)n1` [Compound S9S16D9], the “Absolute mRNA transfection efficiency in HEK293 cells” value falls from 71.5% to 41.4%.

Compared with `CCCCCCCCCCCCCCCCSc1nc(NCCCN2CCOCC2)nc(SCCCCCCCCC)n1` [Compound S9S16D8], `CCCCCCCCCCCCCCCCSc1nc(NCC2CCN(C)CC2)nc(SCCCCCCCCC)n1` [Compound S9S16D10] is higher in “Absolute mRNA transfection efficiency in HEK293 cells” value: 11.2% for the first, 66.4% for the second.

Tested on: Hela cells
Assay: Transfection of Hela cell line, DNA vectors
Type: cell-based
Conditions: 75 ng plasmid DNA, GFP cells / total cells
Procedure, shortened: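 Amino lipid/DOPE liposomes in sodium acetate pH 5.6 were complexed with 75 ng psin-EGFP-IRES-Puro plasmid for 30 min at room temperature, then mixed with 3-5×10^4 Hela cells in DMEM/10% FBS at 37° C. Hoechst stain after 20-24 h, imaging after a further 20-24 h. Efficiency = GFP-positive cells / total nuclei.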

Going from `CCCCCCCCCCCCCCCCSc1nc(NCCCN(C)C)nc(SCCCCCCCCC)n1` [Compound S9S16D6] to `CCCCCCCCCCCCCCCCSc1nc(NCCCN2CCN(C)CC2)nc(SCCCCCCCCC)n1` [Compound S9S16D9], the “Absolute DNA transfection efficiency in Hela cells” value falls from 27.8% to 6.9%.

Compared with `CCCCCCCCCCCCCCCCSc1nc(NCCCN2CCOCC2)nc(SCCCCCCCCC)n1` [Compound S9S16D8], `CCCCCCCCCCCCCCCCSc1nc(NCC2CCN(C)CC2)nc(SCCCCCCCCC)n1` [Compound S9S16D10] is higher in “Absolute DNA transfection efficiency in Hela cells” value: 11.6% for the first, 28.6% for the second.

First: CCCCCCCCCCCSc1nc(NCCCCCCC)nc(NCCN2CCCC2)n1 [Compound S11N7D3]
Second: CCCCCCCCCCCSc1nc(NCCCCCCC)nc(NCCN2CCN(C)CC2)n1 [Compound S11N7D5]
The “Absolute DNA transfection efficiency in Hela cells” value of the first is lower: 9.8% for the first, 11.4% for the second.

First: CCCCCCCCCCCSc1nc(NCCCCCCC)nc(NCCCN(C)C)n1 [Compound S11N7D6]
Second: CCCCCCCCCCCSc1nc(NCCCCCCC)nc(NCCCN2CCN(C)CC2)n1 [Compound S11N7D9]
The “Absolute DNA transfection efficiency in Hela cells” value of the first is higher: 17.0% for the first, 8.3% for the second.

Compared with `CCCCCCCCCCCSc1nc(NCCCCCCC)nc(NCCCN2CCOCC2)n1` [Compound S11N7D8], `CCCCCCCCCCCSc1nc(NCCCCCCC)nc(NCC2CCN(C)CC2)n1` [Compound S11N7D10] is higher in “Absolute DNA transfection efficiency in Hela cells” value: 6.7% for the first, 14.7% for the second.

Tested on: HEK293 cells
Assay: Preliminary screening as DNA vectors, GFP transfection of HEK293 cells
Type: cell-based
Conditions: HEK293 cells; lipid/DOPE liposome with 75 ng plasmid DNA (psin-EGFP-IRES-Puro); number of cells expressing GFP divided by total number of nuclei (Hoechst)
Procedure, shortened: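 Lipid + DOPE liposomes (NaOAc, pH 5.6) complexed w/ 75 ng psin-EGFP-IRES-Puro, 30 min RT; added to 3-5×10^4 HEK293/well, 37° C. Hoechst 0.2 μg/mL at 20-24 h, imaged after further 20-24 h. Efficiency = GFP+ cells / total nuclei.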

Going from `CCCCCCCCCCCCCCCCSc1nc(NCCCN(C)C)nc(SCCCCCCCCC)n1` [Compound S9S16D6] to `CCCCCCCCCCCCCCCCSc1nc(NCCCN2CCN(C)CC2)nc(SCCCCCCCCC)n1` [Compound S9S16D9], the “Absolute DNA transfection efficiency in HEK293 cells” value falls from 55.4% to 13.9%.

First: CCCCCCCCCCCCCCCCSc1nc(NCCCN2CCOCC2)nc(SCCCCCCCCC)n1 [Compound S9S16D8]
Second: CCCCCCCCCCCCCCCCSc1nc(NCC2CCN(C)CC2)nc(SCCCCCCCCC)n1 [Compound S9S16D10]
The “Absolute DNA transfection efficiency in HEK293 cells” value of the first is lower: 23.2% for the first, 56.9% for the second.

Tested on: MCF7 cells
Assay: Transfection of MCF7 cell line, DNA vectors
Type: cell-based
Set-up: concentration or dose not given beside the values
Conditions: plasmid DNA, GFP cells / total cells
Experimental: as §1
Medium DMEM supplemented with […] fetal bovine serum
as §2
Detection (readout): percentage of the number of GFP fluorescent cells relative to the total number of cells (the total number of cells was determined using nucleus dye Hoechst). Lipofectamine2000 was used as the positive control, according to the manufacturer's instructions.
Method: the experimental method was basically the same with Example 4.

Going from `CCCCCCCCCCCCCCCCSc1nc(NCCCN(C)C)nc(SCCCCCCCCC)n1` [Compound S9S16D6] to `CCCCCCCCCCCCCCCCSc1nc(NCCCN2CCN(C)CC2)nc(SCCCCCCCCC)n1` [Compound S9S16D9], the “Absolute DNA transfection efficiency in MCF7 cells” value falls from 39.7% to 23.0%.

Going from `CCCCCCCCCCCCCCCCSc1nc(NCCCN2CCOCC2)nc(SCCCCCCCCC)n1` [Compound S9S16D8] to `CCCCCCCCCCCCCCCCSc1nc(NCC2CCN(C)CC2)nc(SCCCCCCCCC)n1` [Compound S9S16D10], the “Absolute DNA transfection efficiency in MCF7 cells” value rises from 6.2% to 36.9%.

Going from `CCCCCCCCCCCSc1nc(NCCCCCCC)nc(NCCN2CCCC2)n1` [Compound S11N7D3] to `CCCCCCCCCCCSc1nc(NCCCCCCC)nc(NCCN2CCN(C)CC2)n1` [Compound S11N7D5], the “Absolute DNA transfection efficiency in MCF7 cells” value rises from 4.4% to 4.7%.

Going from `CCCCCCCCCCCSc1nc(NCCCCCCC)nc(NCCCN(C)C)n1` [Compound S11N7D6] to `CCCCCCCCCCCSc1nc(NCCCCCCC)nc(NCCCN2CCN(C)CC2)n1` [Compound S11N7D9], the “Absolute DNA transfection efficiency in MCF7 cells” value falls from 16.2% to 5.8%.

Going from `CCCCCCCCCCCSc1nc(NCCCCCCC)nc(NCCCN2CCOCC2)n1` [Compound S11N7D8] to `CCCCCCCCCCCSc1nc(NCCCCCCC)nc(NCC2CCN(C)CC2)n1` [Compound S11N7D10], the “Absolute DNA transfection efficiency in MCF7 cells” value rises from 1.7% to 10.1%.
